Results from publication PMC10692721, “Drug discovery for heart failure targeting myosin-binding protein C” (The Journal of Biological Chemistry, 2023).
“Also recorded” adds a separate entry of the source. *1 amine or outer side, *2 acyl side, *3 side chain or, on linkers, in order; H or OH if unused. Where a SMILES comes first, the peptide text is derived from it. Bridges are numbered along the chain shown (N, C = ends). [ ]: non-standard residue; d: D form. The star is where a group is joined. Orn(4R-OH,5R-OH) = O=C([C@H](C[C@@H](O)[C@@H](O)N[*:3])N[*:1])[*:2]; Tetradecanoyl(10R,12S-Me2) = CC[C@H](C)C[C@H](C)CCCCCCCCC(=O)*; hTyr(3S-OH,4S-OH) = N[C@H](C(=O)O)[C@H](O)[C@@H](O)c1ccc(O)cc1; Gln(3R-OH) = NC(=O)C[C@@H](O)[C@H](N)C(=O)O; Pro(3S-OH) = O=C(O)[C@H]1NCC[C@@H]1O; Hyp = O=C(O)[C@@H]1C[C@@H](O)CN1

Legend:
[1] = system: FMAL-actin/PKA-phosphorylated TMR-cC0-C2 interaction; test: FLT-FRET concentration-response assay, FMAL-actin plus PKA-phosphorylated TMR-cC0-C2; type: binding, human; conditions: phosphorylated cC0-C2
Procedure: Compounds identified as initial hits were further examined to determine the concentration–response curves for seven conditions ([1]): FMAL-actin alone identified actin-binding compounds that alter the FLT of FMAL-actin ([2]).
Fluorescence lifetime (FLT) measurements were acquired using a high-throughput FLT plate reader (Fluorescence Innovations, Inc) ([14], [27]), provided by Photonic Pharma LLC. […] The observed waveforms were analyzed as described previously ([15], [28]).
The primary hits were dissolved in DMSO to make a 10 mM stock solution, which was serially diluted in 96-well mother plates. Hits were screened at eight concentrations (0.5–100 μM). […] Compounds (1 μl) were transferred from the mother plates into 384-well plates using a Mosquito HV liquid handler (TTP Labtech Ltd, Hertfordshire, UK). The same procedure of dispensing as for the pilot screening was applied in the concentration-response assays. Concentration dependence of the FLT-FRET (E/EDMSO) or FLT-TMR (Δτ) change data was fit to a Hill equation only under certain conditions to help guide the eye (Fig. 4).

[2] = system: rabbit fast skeletal (psoas) myofibrils; test: Skeletal myofibril ATPase assay; type: biochemical; conditions: 50 μM compound, pCa 8 to pCa 4
Summary of the method: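 Rabbit psoas myofibrils (0.01 mg/ml) in 50 mM MOPS, 100 mM KCl, 5 mM MgCl2, 1 mM EGTA, pH 7.0, preincubated 20 min at 23 °C with 50 μM compound; 2.1 mM ATP start. NADH-coupled ATPase rate at 340 nm over 30 min, across pCa 4.0–8.0; pCa50 from Hill fit, 1% DMSO control.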

[3] = system: TMR-cC0-C2; test: Selleck library HTS, 532 nm excitation (FLT of TMR-cC0-C2 in presence of FMAL-actin); type: binding, human
[4] = system: TMR-cC0-C2 (C0-C2 fragment of human cMyBP-C); test: FLT-TMR concentration-response assay (FLT of TMR on cC0-C2, no actin); type: binding; conditions: 60 μM compound
Summary of the method: (§1)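 Hits tested at eight concentrations (0.5–100 μM) and read on a high-throughput fluorescence lifetime plate reader. Hill fits applied only under certain conditions.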

[5] = system: TMR-fC1-C2 (C1-C2 of fast skeletal MyBP-C); test: FLT-TMR concentration-response assay, fC1-C2; type: binding; conditions: 60 μM compound
Summary of the method: as §1

[6] = system: FMAL-actin/TMR-fC1-C2 interaction; test: FLT-FRET concentration-response assay, FMAL-actin plus TMR-fC1-C2; type: binding
Summary of the method: as §1

With `CC[C@H](C)C[C@H](C)CCCCCCCCC(=O)N[C@H]1C[C@@H](O)[C@@H](O)NC(=O)[C@@H]2[C@@H](O)CCN2C(=O)[C@H]([C@H](O)CC(N)=O)NC(=O)[C@H]([C@H](O)[C@@H](O)c2ccc(O)cc2)NC(=O)[C@@H]2C[C@@H](O)CN2C(=O)[C@H]([C@@H](C)O)NC1=O` [Pneumocandin B0] ({Tetradecanoyl(10R,12S-Me2)}-[Orn(4R-OH,5R-OH)]T[Hyp][hTyr(3S-OH,4S-OH)][Gln(3R-OH)][Pro(3S-OH)]; lactam 1-C) the “effect on FLT-FRET / binding between FMAL-actin and PKA-phosphorylated TMR-cC0-C2 (in words)” value [1] was “decreasing the binding”, the “effect on skeletal MF ATPase activity (in words)” value [2] was “inhibitory effect; also recorded: affected ATPase” and the “532-nm Δτ, Repeat 1” value ([3]; initial screen, 30 μM compound) was 0.179 ns. The “532-nm Δτ, Repeat 2” value ([3]; initial screen, 30 μM compound) was 0.149 ns, the “532-nm z-score (based on avg Δτ)” value ([3]; robust z-score, hit threshold ±4, 30 μM compound) was 10.04 and the “cC0-C2/cC0-C2#P (ratio of FLT changes)” value [4] was 0.9. The “cC0-C2 FLT change (% change from DMSO, FLT of TMR-MyBP-C)” value [4] was 12.4%, the “cC0-C2/fC1-C2 (ratio of FLT changes)” value [5] was 1.1 and the “fC1-C2 FLT change (% change from DMSO, FLT of TMR-MyBP-C)” value [5] was 11.4%. The “effect on FLT-FRET / binding between FMAL-actin and TMR-fC1-C2 (in words)” value [6] was “increased the binding” and the “increase in actin binding (fC1-C2-actin FRET)” value ([6]; skeletal MyBP-C) was 24%.
